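Each compound was tested at five concentrations against cells in 96-well plates for 48 hours. Here, GI50 denotes the concentration required for 50% inhibition of growth.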 Activity calls are given as the source filed them. Rule as the data show it: active = GI50 up to about 1.1 µM and inactive = higher.
How the values were obtained:
Assay in all cases: NCI tumour cell line growth inhibition, 48 h
786-0 = tested on: 786-0
ACHN = tested on: ACHN
COLO 205 = tested on: COLO 205
EKVX = tested on: EKVX
HOP-62 = tested on: HOP-62
HT-29 = tested on: HT-29
IGROV-1 = tested on: IGROV-1
Malme-3M = tested on: Malme-3M
NCI-H460 = tested on: NCI-H460
NCI/ADR-RES = tested on: NCI/ADR-RES
OVCAR-5 = tested on: OVCAR-5
PC-3 = tested on: PC-3
SK-MEL-5 = tested on: SK-MEL-5
SK-OV-3 = tested on: SK-OV-3
SN12C = tested on: SN12C
SR = tested on: SR
UACC-257 = tested on: UACC-257
UO-31 = tested on: UO-31
CCRF-CEM = tested on: CCRF-CEM

Measured: GI50

N=C(N)NCCN1CC2CCC(CC2)C1
inactive: 786-0 > 100 µM | ACHN > 100 µM | COLO 205 93.1 µM | EKVX > 100 µM | HOP-62 > 100 µM | HT-29 65.2 µM | IGROV-1 > 100 µM | Malme-3M > 100 µM | NCI-H460 > 100 µM | NCI/ADR-RES > 100 µM | OVCAR-5 > 100 µM | PC-3 44.1 µM | SK-MEL-5 53.2 µM | SK-OV-3 > 100 µM | SN12C > 100 µM | SR > 100 µM | UACC-257 > 100 µM | UO-31 > 100 µM

COC(=O)/N=[N+](\[O-])C(c1ccc(Cl)cc1)c1ccc(Cl)cc1
inactive: 786-0 27.1 µM | CCRF-CEM 28.4 µM | COLO 205 23.9 µM | EKVX 25.2 µM | HT-29 51.6 µM | IGROV-1 40.1 µM | Malme-3M 51.9 µM | NCI-H460 38.9 µM | NCI/ADR-RES 38.2 µM | OVCAR-5 80.9 µM | PC-3 27.2 µM | SK-MEL-5 24.7 µM | SK-OV-3 83.6 µM | SN12C 56.1 µM | SR 42 µM | UACC-257 34.6 µM | UO-31 15.5 µM

O=[N+]([O-])c1ccc(C(Nc2ccccc2)P(c2ccccc2)c2ccccc2)cc1 (stereo unspecified)
inactive: 786-0 > 100 µM | ACHN > 100 µM | COLO 205 > 100 µM | EKVX > 100 µM | HOP-62 67.3 µM | HT-29 > 100 µM | IGROV-1 > 100 µM | Malme-3M > 100 µM | NCI-H460 > 100 µM | NCI/ADR-RES > 100 µM | OVCAR-5 > 100 µM | PC-3 > 100 µM | SK-MEL-5 > 100 µM | SK-OV-3 > 100 µM | SN12C > 100 µM | SR > 100 µM | UACC-257 > 100 µM | UO-31 > 100 µM

C=CCOc1ccc(C2C(C(=O)OC)C(=O)CC(O)(c3ccccc3)C2C(=O)OC)cc1OC (stereo unspecified)
inactive: 786-0 17 µM | ACHN 38.1 µM | CCRF-CEM 30.9 µM | COLO 205 63.1 µM | EKVX 62.7 µM | HOP-62 42.4 µM | HT-29 42.2 µM | IGROV-1 34.7 µM | Malme-3M 31.6 µM | NCI-H460 30.3 µM | NCI/ADR-RES 22.8 µM | OVCAR-5 > 100 µM | PC-3 31.7 µM | SK-MEL-5 35.3 µM | SN12C 41.7 µM | SR 27.4 µM | UACC-257 58.1 µM | UO-31 22.4 µM

CC(C)(Cc1ccccc1)NC1=NCCO1
inactive: 786-0 > 100 µM | ACHN > 100 µM | CCRF-CEM > 100 µM | COLO 205 > 100 µM | EKVX > 100 µM | HT-29 > 100 µM | IGROV-1 > 100 µM | Malme-3M > 100 µM | NCI-H460 > 100 µM | NCI/ADR-RES > 100 µM | OVCAR-5 > 100 µM | PC-3 > 100 µM | SK-MEL-5 > 100 µM | SK-OV-3 > 100 µM | SR > 100 µM | UACC-257 > 100 µM | UO-31 > 100 µM

O=C(O)CCC(=O)c1ccc[nH]1
inactive: 786-0 > 100 µM | ACHN > 100 µM | COLO 205 > 100 µM | EKVX > 100 µM | HOP-62 > 100 µM | HT-29 > 100 µM | IGROV-1 > 100 µM | Malme-3M > 100 µM | NCI-H460 > 100 µM | NCI/ADR-RES > 100 µM | OVCAR-5 > 100 µM | PC-3 > 100 µM | SK-MEL-5 > 100 µM | SK-OV-3 > 100 µM | SN12C 6.56 µM | SR > 100 µM | UACC-257 94 µM | UO-31 > 100 µM

Reference: ChEMBL document CHEMBL1201862, “PubChem BioAssay data set” (2004)
